Laboratory results: patent US9562035B2, “Benzamide derivative useful as FASN inhibitors for the treatment of cancer” (Janssen Pharmaceutica NV, priority 2013, dated 2017)

What was measured:
[1] = biological target: T1, hFASN enzyme (full length) (Homo sapiens, UniProt P49327); assay: Fatty Acid Synthase (FASN) Inhibition Scintillation Proximity Assay; assay type: biochemical; conditions: for IC50: mean where tested more than once, ~ = standard error of pIC50 larger than 0.5; for inhibition at 10 µM: read-out: FASN % Effect @1E−05M
T1 construct: 10 μL hFASN enzyme (full length, 300 ng, purified in house); made in house
T1 sequence (P49327 whole entry): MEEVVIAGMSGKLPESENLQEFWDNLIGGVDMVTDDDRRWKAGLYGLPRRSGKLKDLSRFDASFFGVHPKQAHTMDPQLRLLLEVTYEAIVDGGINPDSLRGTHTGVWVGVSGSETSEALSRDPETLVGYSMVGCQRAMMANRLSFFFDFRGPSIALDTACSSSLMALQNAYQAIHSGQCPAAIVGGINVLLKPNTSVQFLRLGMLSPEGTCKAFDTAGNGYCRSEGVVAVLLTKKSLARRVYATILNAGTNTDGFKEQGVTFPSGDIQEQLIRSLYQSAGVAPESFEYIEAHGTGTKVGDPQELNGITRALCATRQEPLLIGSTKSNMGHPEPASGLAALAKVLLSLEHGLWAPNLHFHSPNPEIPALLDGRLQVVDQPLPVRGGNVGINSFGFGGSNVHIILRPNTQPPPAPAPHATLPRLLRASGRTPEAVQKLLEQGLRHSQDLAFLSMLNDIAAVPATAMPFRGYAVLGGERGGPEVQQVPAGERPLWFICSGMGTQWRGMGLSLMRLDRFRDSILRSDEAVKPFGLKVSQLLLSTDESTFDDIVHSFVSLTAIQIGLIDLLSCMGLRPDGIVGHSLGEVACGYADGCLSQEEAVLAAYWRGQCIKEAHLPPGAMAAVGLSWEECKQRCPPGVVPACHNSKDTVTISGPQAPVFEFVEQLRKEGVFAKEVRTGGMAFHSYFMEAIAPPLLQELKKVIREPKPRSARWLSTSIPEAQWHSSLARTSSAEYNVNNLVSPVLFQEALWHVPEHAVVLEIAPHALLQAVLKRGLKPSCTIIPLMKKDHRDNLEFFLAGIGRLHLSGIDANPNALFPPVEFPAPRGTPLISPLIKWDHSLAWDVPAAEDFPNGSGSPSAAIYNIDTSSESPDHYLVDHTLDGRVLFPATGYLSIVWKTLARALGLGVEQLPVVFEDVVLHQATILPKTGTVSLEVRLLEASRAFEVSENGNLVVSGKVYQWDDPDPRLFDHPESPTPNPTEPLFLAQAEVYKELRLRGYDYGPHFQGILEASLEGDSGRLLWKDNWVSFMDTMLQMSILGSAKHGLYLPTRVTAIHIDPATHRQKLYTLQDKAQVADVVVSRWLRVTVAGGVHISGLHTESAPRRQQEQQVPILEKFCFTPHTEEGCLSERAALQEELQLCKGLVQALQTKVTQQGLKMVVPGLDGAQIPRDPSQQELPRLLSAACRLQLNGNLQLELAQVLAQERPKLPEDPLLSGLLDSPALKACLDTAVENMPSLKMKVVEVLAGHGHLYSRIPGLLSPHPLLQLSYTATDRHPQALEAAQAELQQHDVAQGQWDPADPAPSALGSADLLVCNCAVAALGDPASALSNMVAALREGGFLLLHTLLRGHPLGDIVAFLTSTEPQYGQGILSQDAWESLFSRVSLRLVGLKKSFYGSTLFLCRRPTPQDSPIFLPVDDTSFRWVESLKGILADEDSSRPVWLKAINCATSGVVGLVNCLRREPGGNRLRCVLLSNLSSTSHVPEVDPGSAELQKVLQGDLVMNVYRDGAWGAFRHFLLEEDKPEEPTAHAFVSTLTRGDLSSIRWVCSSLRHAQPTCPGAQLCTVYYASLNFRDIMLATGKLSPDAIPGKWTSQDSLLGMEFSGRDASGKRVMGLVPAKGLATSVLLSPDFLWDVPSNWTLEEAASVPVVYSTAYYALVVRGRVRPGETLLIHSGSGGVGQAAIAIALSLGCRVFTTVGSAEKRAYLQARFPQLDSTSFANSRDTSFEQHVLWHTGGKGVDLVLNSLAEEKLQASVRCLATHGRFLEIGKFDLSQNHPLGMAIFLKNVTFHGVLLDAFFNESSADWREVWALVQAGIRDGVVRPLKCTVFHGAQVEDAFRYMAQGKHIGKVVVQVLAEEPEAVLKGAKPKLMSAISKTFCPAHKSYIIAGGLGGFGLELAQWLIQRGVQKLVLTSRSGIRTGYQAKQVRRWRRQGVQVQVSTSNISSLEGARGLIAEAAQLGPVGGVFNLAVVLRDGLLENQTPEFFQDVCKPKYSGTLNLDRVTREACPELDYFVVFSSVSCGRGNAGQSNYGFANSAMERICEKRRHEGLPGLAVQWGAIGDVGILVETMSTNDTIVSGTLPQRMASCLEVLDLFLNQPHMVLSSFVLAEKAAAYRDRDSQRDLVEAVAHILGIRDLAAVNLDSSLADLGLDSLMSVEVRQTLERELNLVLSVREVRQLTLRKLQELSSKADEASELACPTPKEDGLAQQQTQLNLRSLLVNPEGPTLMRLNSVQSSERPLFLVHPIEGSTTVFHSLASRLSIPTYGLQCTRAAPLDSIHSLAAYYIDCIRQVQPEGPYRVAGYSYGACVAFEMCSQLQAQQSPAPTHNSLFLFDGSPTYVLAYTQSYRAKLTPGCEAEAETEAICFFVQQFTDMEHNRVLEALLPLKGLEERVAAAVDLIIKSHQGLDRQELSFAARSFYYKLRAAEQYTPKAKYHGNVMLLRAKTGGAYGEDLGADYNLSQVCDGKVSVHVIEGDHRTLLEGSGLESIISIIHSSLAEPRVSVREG
Method: In this assay, inhibition of FASN activity is measured using ^3H-acetyl-CoA and malonyl-CoA as substrates. ^3H-Acetyl CoA is converted to ^3H-palmitate through a series of reactions by the FASN protein, which contains 7 functional domains and carries out 7 enzymatic reactions to ultimately produce ^3H-palmitate. The assay principle is based upon the fact that ^3H-acetyl-CoA is hydrophilic and the end product, ^3H-palmitate is hydrophobic.
10 μL assay buffer (100 mM KH2PO4 pH 7.5, 1 mM DTT) (20 μL in blanks) was added to a 384-well white Opti Plate plate (Perkin Elmer). 0.9 μL test compound (at concentrations of 30 μM, 10 μM, 3 μM, 1 μM, 0.30 μM, 0.10 μM, 0.03 μM and 0.01 μM)/DMSO and 10 μL hFASN enzyme (full length, 300 ng, purified in house) or 10 μL assay buffer was added to the wells. Then 10 μL 450 μM NADPH (Sigma N7505), 18.75 μM [^3H]-acetyl-CoA (Perkin Elmer NET-290L), 150 μM malonyl-CoA (Sigma M4263) were added, mixed and incubated at room temperature for 60 minutes. The reaction was stopped by adding 20 μL Streptavidin coupled imaging beads (25 mg/ml). After incubation for 30 minutes at room temperature in the dark, the 384 well plate was centrifuged at 1500 rpm for 3 minutes and was measured after at least 24 hrs by the LEADseeker™, measuring emission using a 610±20 nm pass filter. (Bays, N. W., et al., “A simplified scintillation proximity assay for fatty acid synthase activity: development and comparison with other FAS activity assays”, J. Biomol. Screen, 2009, pp 636-642, Vol. 14(6).)
(§1) Raw data generated by the instrument were normalized to % Controlmin values, which were calculated as: % Controlmin=100*(x−mLC)/(mHC−mLC)
(§2) where mLC and mHC were the means of the low control wells and high control wells on the plate, after manual exclusion of outliers. A plot of Controlmin versus test compound concentration was fitted to a 4-parameter logistic curve using a non-linear least squares regression method. From the plot, an IC50 (concentration at which 50% inhibition is achieved) was calculated. pIC50 values were calculated as −log(IC50), when IC50 is expressed in molar units.

[2] = biological target: T2, FASN Keto-reductase Domain (Homo sapiens, UniProt P49327); assay: Fatty Acid Synthase Keto-Reductase Domain (FASN KR) Inhibition; assay type: biochemical; conditions: mean where tested more than once; read-out: FASN K-R Domain pIC50 (converted)
T2 construct: 10 μL hFASN enzyme (full length, 300 ng, purified in house) and 360 μM NADPH; made in house
T2 sequence (P49327 whole entry, the tested form may be a part): as the sequence (P49327 whole entry) above
Method: 10 μL assay buffer (100 mM KH2PO4 pH 7.5) was added to a 384-well clear plate (costar 3702). 0.3 μL compound (at concentrations of 30 μM, 10 μM, 3 μM, 1 μM, 0.30 μM, 0.10 μM, 0.03 μM and 0.01 μM)/DMSO, 10 μL hFASN enzyme (full length, 300 ng, purified in house) and 360 μM NADPH (except in blank) were then added. Then, 10 μL 180 mM ethyl acetoacetate (Aldrich 688983) was added, mixed and immediately thereafter, the absorbance at 340 nm (T1) by Multiscan (Labsystems) was measured. After 20 minutes incubation at room temperature the plate was measured again (T2).
The decrease in absorbance was calculated as (Absorbance before incubation T1)−(Absorbance following incubation T2).
as §1, §2

| SMILES | IC50 [1] | inhibition at 10 µM [1] | IC50 [2] |
| --- | --- | --- | --- |
| Cc1ccc(C(=O)N2CCC(c3ccc4c(c3)C(C)N(C)C4=O)CC2)cc1NC(=O)c1ccc(NC(C)C)nc1 (stereo not shown) [Compound 22, N-(5-(4-(2,3-dimethyl-1-oxoisoindolin-5-yl)piperidine-1-carbonyl)-2-methylphenyl)-6-(isopropylamino)nicotinamide] | 4.9 µM | 60% | 7.94 µM |
| Cc1ccc(C(=O)N2CCC(c3ccc4nncn4c3)CC2)cc1NC(=O)c1ccc(NC(C)C)nc1 [Compound 20, N-(5-(4-([1,2,4]triazolo[4,3-a]pyridin-6-yl)piperidine-1-carbonyl)-2-methylphenyl)-6-(isopropylamino)nicotinamide] | ~30.2 µM | 30% |  |
| Cc1ccc(C(=O)N2CCC(c3ccc4nncn4c3)CC2)cc1NC(=O)c1ccc(Cl)nc1 [Compound 18, N-(5-(4-([1,2,4]triazolo[4,3-a]pyridin-6-yl)piperidine-1-carbonyl)-2-methylphenyl)-6-chloronicotinamide] | > 30.2 µM | 2% | > 30.2 µM |
| Cc1ccc(C(=O)N2CCC(c3ccc4c(c3)C(C)N(C)C4=O)CC2)cc1NC(=O)c1ccc(Cl)nc1 (stereo not shown) [Compound 21, 6-chloro-N-(5-(4-(2,3-dimethyl-1-oxoisoindolin-5-yl)piperidine-1-carbonyl)-2-methylphenyl)nicotinamide] | 27.5 µM | 22% | 13.2 µM |
| Cc1ccc(C(=O)N2CCC(c3ccc4c(c3)CN(C)C4=O)CC2)cc1NC(=O)c1ccc(NC(C)C)nc1 [Compound 19, 6-(isopropylamino)-N-(2-methyl-5-(4-(2-methyl-1-oxoisoindolin-5-yl)piperidine-1-carbonyl)phenyl)nicotinamide] | 6.61 µM | 50% | 5.5 µM |
| Cc1ccc(C(=O)N2CCC(c3ccc4nccn4c3)CC2)cc1NC(=O)c1ccc(Cl)nc1 [Compound 14, 6-chloro-N-(5-(4-(imidazo[1,2-a]pyridin-6-yl)piperidine-1-carbonyl)-2-methylphenyl)nicotinamide] | > 30.2 µM | 30% | 17 µM |
| Cc1ccc(C(=O)N2CCC(c3ccc4nccn4c3)CC2)cc1NC(=O)c1ccc(NC(C)C)nc1 [Compound 17, N-(5-(4-(imidazo[1,2-a]pyridin-6-yl)piperidine-1-carbonyl)-2-methylphenyl)-6-(isopropylamino)nicotinamide] | ~12.9 µM | 51% | 8.13 µM |
| Cc1ccc(C(=O)N2CCC(c3ccc4ncsc4c3)CC2)cc1NC(=O)c1ccc(NC(C)C)nc1 [Compound 46, N-(5-(4-(benzo[d]thiazol-6-yl)piperidine-1-carbonyl)-2-methylphenyl)-6-(isopropylamino)nicotinamide] | 2.29 µM | 74% |  |
| Cc1ccc(C(=O)N2CC(O)(c3ccc(-c4ccnn4C)cc3)C2)cc1NC(=O)c1ccc(Cl)nc1 [Compound 107, 6-chloro-N-(5-(3-hydroxy-3-(4-(1-methyl-1H-pyrazol-5-yl)phenyl)azetidine-1-carbonyl)-2-methylphenyl)nicotinamide] | > 10 µM | 41% |  |
| Cc1ccc(C(=O)N2CCC(c3ccc(-c4cnn(C)c4)cc3)CC2)cc1NC(=O)c1ccc(N2CCN[C@H](CO)C2)nc1 [Compound 164, (3S)-6-(3-(hydroxymethyl)piperazin-1-yl)-N-(2-methyl-5-(4-(4-(1-methyl-1H-pyrazol-4-yl)phenyl)piperidine-1-carbonyl)phenyl)nicotinamide] | 0.0209 µM | 110% | 0.0417 µM |
| Cc1ccc(C(=O)N2CCC(c3ccc4ncsc4c3)CC2)cc1NC(=O)c1ccc(Cl)nc1 [Compound 47, N-(5-(4-(benzo[d]thiazol-6-yl)piperidine-1-carbonyl)-2-methylphenyl)-6-chloronicotinamide] | ~7.76 µM | 60% |  |

Results, then the molecule that gave them:

| IC50 [1] | inhibition at 10 µM [1] | IC50 [2] | SMILES |
| --- | --- | --- | --- |
| 4.47 µM | 62% |  | CN(C(=O)C1CC1)c1ccc(C(=O)N2CCC(c3ccc(-c4cnn(C)c4)cc3)CC2)cc1NC(=O)C1CC1 [Compound 277, N-(2-(cyclopropanecarboxamido)-4-(4-(4-(1-methyl-1H-pyrazol-4-yl)phenyl)piperidine-1-carbonyl)phenyl)-N-methylcyclopropanecarboxamide] |
| > 10 µM |  |  | COCCN(C(=O)C1CC1)c1ccc(C(=O)N2CCC(c3ccc(-c4cnn(C)c4)cc3)CC2)cc1NC(=O)C1CC1 [Compound 291, N-(2-(cyclopropanecarboxamido)-4-(4-(4-(1-methyl-1H-pyrazol-4-yl)phenyl)piperidine-1-carbonyl)phenyl)-N-(2-methoxyethyl)cyclopropanecarboxamide] |
| > 10 µM | 17% |  | Cc1ccc(C(=O)N2CC(c3ccc(-c4cnn(C)c4)cc3)C2)cc1NC(=O)C1CCCC1 [Compound 226, N-(2-methyl-5-(3-(4-(1-methyl-1H-pyrazol-4-yl)phenyl)azetidine-1-carbonyl)phenyl)cyclopentanecarboxamide] |
| ~2 µM | 63% |  | Cc1ccc(-c2ccc(C3CCN(C(=O)c4ccc(C)c(NC(=O)c5ccc(NC(C)C)nc5)c4)CC3)cc2)cc1 [Compound 234, 6-(isopropylamino)-N-(2-methyl-5-(4-(4′-methyl-[1,1′-biphenyl]-4-yl)piperidine-1-carbonyl)phenyl)nicotinamide] |
| 4.07 µM | 61% |  | Cc1ccc(C(=O)N2CCC(c3ccc(-c4cnn(C)c4)cc3)CC2)cc1NC(=O)c1nc(C(C)(C)C)cs1 [Compound 229, 4-(tert-butyl)-N-(2-methyl-5-(4-(4-(1-methyl-1H-pyrazol-4-yl)phenyl)piperidine-1-carbonyl)phenyl)thiazole-2-carboxamide] |
| 2.45 µM | 63% |  | Cc1ccc(C(=O)N2CCC(c3ccc(-c4cnn(C)c4)cc3)CC2)cc1NC(=O)c1nccn1C [Compound 227, 1-methyl-N-(2-methyl-5-(4-(4-(1-methyl-1H-pyrazol-4-yl)phenyl)piperidine-1-carbonyl)phenyl)-1H-imidazole-2-carboxamide] |
